Test results reported in paper PMC12630025, “Characterization and inhibitor sensitivity of ARAF, BRAF, and CRAF kinases [drawing 1]” (The Journal of Biological Chemistry, 2025).
Where “and” joins values, the source holds several entries; their conditions need not be identical. Equal entries are not always repeated. Where two headings read alike, the source gives them in different places.

Experiments:
CRAF^SSDD = CRAF^SSDD (Homo sapiens, UniProt P04049, Y340D/Y341D); assay: ATP and MEK titrations by TR-FRET (Michaelis constants, substrate inhibition)
BRAF^V600E = BRAF^V600E (Homo sapiens, UniProt P15056, V600E); assay: as above
BRAF^KD = BRAF^KD (Homo sapiens, UniProt P15056); assay: as above
ARAF^SSDD = target: T1, ARAF^SSDD (Homo sapiens, UniProt P10398, G300S/Y301D/Y302D); assay: as above
T1 sequence (P10398 274-606 G300S/Y301D/Y302D): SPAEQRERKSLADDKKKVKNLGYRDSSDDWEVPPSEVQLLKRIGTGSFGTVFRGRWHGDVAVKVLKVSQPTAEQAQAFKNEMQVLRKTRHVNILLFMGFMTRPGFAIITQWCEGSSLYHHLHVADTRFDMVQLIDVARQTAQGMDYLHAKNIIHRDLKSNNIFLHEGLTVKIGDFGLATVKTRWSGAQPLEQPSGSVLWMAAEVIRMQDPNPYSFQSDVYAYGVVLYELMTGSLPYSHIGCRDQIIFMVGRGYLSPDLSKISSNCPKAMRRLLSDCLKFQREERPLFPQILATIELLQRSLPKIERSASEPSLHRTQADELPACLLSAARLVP

BRAF^WT = target: T2, BRAF^WT (Homo sapiens, UniProt P15056); assay: as above; format: biochemical; settings: apparent Ki of substrate inhibition by ATP
T2 construct: His6 (N); made in house; host or cells: SF9 insect cells (baculovirus)
T2 sequence (P15056 419-766): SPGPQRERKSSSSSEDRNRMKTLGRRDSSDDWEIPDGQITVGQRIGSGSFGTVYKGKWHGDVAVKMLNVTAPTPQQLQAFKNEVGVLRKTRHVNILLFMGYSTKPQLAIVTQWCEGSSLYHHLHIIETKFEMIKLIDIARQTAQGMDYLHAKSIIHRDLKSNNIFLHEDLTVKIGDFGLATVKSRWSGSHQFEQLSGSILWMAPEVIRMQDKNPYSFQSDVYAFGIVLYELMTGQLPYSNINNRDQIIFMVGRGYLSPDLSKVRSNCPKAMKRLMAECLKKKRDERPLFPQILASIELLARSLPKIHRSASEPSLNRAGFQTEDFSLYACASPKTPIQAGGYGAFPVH

CRAF^WT = CRAF^WT (Homo sapiens, UniProt P04049); assay: as above
[1] = target: T3, CRAF^SSDD (MEK1^SASA:CRAF^SSDD:14-3-3 dimer complex) (Homo sapiens, UniProt P04049, Y340D/Y341D); assay: TR-FRET kinase inhibition assay (phosphorylation of biotinylated MEK1), CRAF SSDD dimer complex; format: biochemical; settings: for CRAF^SSDD nH (Hill slope): four-parameter fit, 200 μM ATP; for CRAF^SSDD IC50: 1 nM enzyme
T3 construct: His6 (N); StrepII (N); made in house; host or cells: insect cells (baculovirus)

[2] = target: T4, CRAF^WT (MEK1:CRAF^WT:14-3-3 dimer complex) (Homo sapiens, UniProt P04049); assay: TR-FRET kinase inhibition assay (phosphorylation of biotinylated MEK1), CRAF WT dimer complex; format: biochemical; settings: for CRAF^WT nH (Hill slope): four-parameter fit
T4 construct: His6 (N); made in house; host or cells: insect cells (baculovirus)

[3] = target: T5, BRAF^WT (MEK1^SASA:BRAF^WT:14-3-3 dimer complex) (Homo sapiens, UniProt P15056); assay: biochemical; format: biochemical; settings: for effect of increasing ATP concentration on IC50 for BRAF^WT dimers: 10, 100, 1000 μM ATP
T5 construct: His6 (N); made in house; host or cells: SF9 insect cells (baculovirus)
T5 sequence (P15056 419-766, one chain of several): as the sequence (P15056 419-766) above

[4] = target: T6, ARAF^SSDD (MEK1^SASA:ARAF^SSDD-14-3-3ε dimer complex) (Homo sapiens, UniProt P10398, G300S/Y301D/Y302D); assay: TR-FRET kinase inhibition assay (phosphorylation of biotinylated MEK1), ARAF dimer complex; format: biochemical; settings: for ARAF^SSDD nH (Hill slope): four-parameter fit, 200 μM ATP; for IC50: 10 nM enzyme, 250 nM MEK1, 200 μM ATP, 40 min preincubation, 30 min reaction; for cooperativity of inhibition of ARAF^SSDD: from Hill constants, less than −1.0 indicates positive cooperativity
T6 construct: ARAF^274-606, G300S, Y301/302D-14-3-3 ε with N-terminal His6 and StrepII tags; His6 (N); StrepII (N); made in house; host or cells: SF9 insect cells (baculovirus)
T6 sequence (P10398 274-606 G300S/Y301D/Y302D): T1 sequence (P10398 274-606 G300S/Y301D/Y302D)

[5] = test system: BRAF^WT (MEK1^SASA:BRAF^WT:14-3-3 dimer complex); assay: biochemical; format: biochemical; settings: IC50 ratio versus BRAF^V600E
[6] = target: T7, BRAF^V600E (MEK1^SASA:BRAF^V600E monomer complex) (Homo sapiens, UniProt P15056, V600E); assay: TR-FRET kinase inhibition assay (phosphorylation of biotinylated MEK1), BRAF V600E monomer complex; format: biochemical
T7 construct: His6 (N); intein (C, cleaved yes); made in house; host or cells: insect cells (baculovirus)

[7] = test system: CRAF^WT (MEK1:CRAF^WT:14-3-3 dimer complex); assay: TR-FRET kinase inhibition assay (phosphorylation of biotinylated MEK1), CRAF WT dimer complex; format: biochemical; settings: IC50 ratio ARAF/CRAF
[8] = 4 nM enzyme, 250 nM MEK1, 200 μM ATP, 40 min preincubation, 30 min reaction, read-out: CRAF^WT IC50
[9] = 1 nM enzyme, 250 nM MEK1, 200 μM ATP, 40 min preincubation, 30 min reaction, read-out: BRAF^WT IC50
[10] = IC50 of BRAF^WT at 10 μM ATP, 10 μM ATP
[11] = IC50 of BRAF^WT at 100 μM ATP, 100 μM ATP
[12] = IC50 of BRAF^WT at 1000 μM ATP, 1000 μM ATP
[13] = 1 nM enzyme, 250 nM MEK1, 200 μM ATP, 40 min preincubation, three-parameter fit
[14] = 250 nM MEK1, 200 μM ATP, 40 min preincubation, 30 min reaction
[15] = 4 nM enzyme, 250 nM MEK1, 200 μM ATP, 40 min preincubation, 30 min reaction
[16] = read-out: IC50 of BRAF^WT at 100 μM ATP, 100 μM ATP

Structure (SMILES)	CRAF^SSDD nH (Hill slope) [1]	CRAF^WT nH (Hill slope) ([2]; 200 μM ATP)	ARAF^SSDD nH (Hill slope) [4]	BRAF^WT nH (Hill slope) ([3]; four-parameter fit, 200 μM ATP)	IC50 [4]	further results
Nc1ncnc2c1ncn2[C@@H]1O[C@H](COP(=O)(O)OP(=O)(O)OP(=O)(O)O)[C@@H](O)[C@H]1O [ATP]						Ki (CRAF^SSDD; read-out: Ki-ATP, CRAF^SSDD, apparent Ki of substrate inhibition by ATP): > 15000 µM; Km (CRAF^SSDD; read-out: Km-ATP, CRAF^SSDD, ATP titration, substrate inhibition fit): 0.73 ± 0.38 µM; Ki (BRAF^V600E; read-out: Ki-ATP, BRAF^V600E, apparent Ki of substrate inhibition by ATP): 6340 ± 4070 µM; Km (BRAF^V600E; read-out: Km-ATP, BRAF^V600E, ATP titration, substrate inhibition fit): 12.6 ± 7.8 µM; Km-ATP, BRAF^KD (BRAF^KD; ATP titration, substrate inhibition fit): 0.18 ± 0.04 µM; Ki (BRAF^KD; read-out: Ki-ATP, BRAF^KD, apparent Ki of substrate inhibition by ATP): 3530 ± 580 µM; Ki (ARAF^SSDD; read-out: Ki-ATP, ARAF^SSDD, apparent Ki of substrate inhibition by ATP): > 15000 µM; Km (ARAF^SSDD; read-out: Km-ATP, ARAF^SSDD, ATP titration, substrate inhibition fit): 1.58 ± 0.19 µM; Ki (BRAF^WT): 4840 ± 2850 µM; Ki (CRAF^WT; read-out: Ki-ATP, CRAF^WT, apparent Ki of substrate inhibition by ATP): > 15000 µM; Km (CRAF^WT; read-out: Km-ATP, CRAF^WT, ATP titration, substrate inhibition fit): 1.56 ± 1.5 µM
OCCn1cc(-c2ccc3c(c2)CC/C3=N\O)c(-c2ccncc2)n1 [GDC0879]	−0.7	−1.0	−0.4			BRAF^WT nH (Hill slope) [3]: −0.9
O=C(c1c(F)ccc(NS(=O)(=O)N2CC[C@@H](F)C2)c1F)c1c[nH]c2ncc(-c3cnc(C4CC4)nc3)cc12 [PLX8394]	−0.5	−0.5	−0.8	−0.9	0.0596 ± 0.0548 µM	IC50 ([1]; read-out: CRAF^SSDD IC50): 0.279 ± 0.202 µM; IC50 [2, 8]: > 0.999 µM; IC50 ([2]; 200 μM ATP, read-out: CRAF^WT dimers IC50): > 1 µM; IC50 [3, 9]: 0.054 ± 0.0401 µM; effect of increasing ATP concentration on IC50 for BRAF^WT dimers [3]: shifted as expected; IC50 [3, 10]: 0.0111 ± 0.00784 µM; IC50 [3, 11]: 0.0385 ± 0.0342 µM; IC50 [3, 12]: 0.259 ± 0.316 µM; fold less active on BRAF^WT dimers than on BRAF^V600E [5]: about 3 fold; fold less active on ARAF^SSDD dimers than on BRAF^V600E ([4]; IC50 ratio versus BRAF^V600E): about 3 fold; IC50 [6, 13]: 0.0211 ± 0.00178 µM
CNc1ncc2cc(-c3cc(NC(=O)NCCC(C)(C)C)c(F)cc3C)c(C)nc2n1 [LY3009120]	−2.9	−1.4	−3.6	−2.2		cooperativity of inhibition of ARAF^SSDD [4]: clear positive cooperativity
CCCS(=O)(=O)Nc1ccc(F)c(C(=O)c2c[nH]c3ncc(Cl)cc23)c1F [PLX4720]			−0.5		0.704 ± 0.264 µM	
Cc1ccc2c(Nc3cccc(Cl)c3F)nccc2c1NC(=O)c1csc2c(N)ncnc12 [Belvarafenib]	−3.0	−1.6	−1.3	−3.0	0.0699 ± 0.032 µM	CRAF^SSDD IC50 [1, 14]: single-digit nanomolar; IC50 ([1]; read-out: CRAF^SSDD IC50): 0.00566 ± 0.00112 µM; CRAF^WT IC50 [2, 15]: single-digit nanomolar; IC50 [2, 8]: 0.00505 ± 0.00181 µM; IC50 [3, 9]: 0.0199 ± 0.00098 µM; effect of increasing ATP concentration on IC50 for BRAF^WT dimers [3]: only modestly affected; IC50 [3, 10]: 0.0142 ± 0.00636 µM; IC50 [3, 11]: 0.0215 ± 0.00923 µM; IC50 [3, 12]: 0.0293 ± 0.00875 µM; IC50 [6]: 0.0133 ± 0.00087 µM
CN(C)CCOc1ccc(-c2nc(-c3ccncc3)c(-c3ccc4c(c3)CC/C4=N\O)[nH]2)cc1 [SB590885]			−0.6		0.0146 ± 0.0039 µM	IC50 ([1]; CRAF^SSDD IC50, 1 nM enzyme, 250 nM MEK1, 200 μM ATP, 40 min preincubation, 30 min reaction): 0.0025 ± 0.00163 µM; IC50 ([2]; CRAF^WT IC50, 4 nM enzyme, 250 nM MEK1, 200 μM ATP, 40 min preincubation, 30 min reaction): 0.0116 ± 0.00119 µM; BRAF^WT nH (Hill slope) [3]: −1.0
Cc1ccc(C(=O)Nc2ccc(CN3CCN(C)CC3)c(C(F)(F)F)c2)cc1C#Cc1cnc2cccnn12 [Ponatinib]	−1.6	−0.9	−1.2	−2.0		
CC(C)(C)c1nc(-c2cccc(NS(=O)(=O)c3c(F)cccc3F)c2F)c(-c2ccnc(N)n2)s1 [Dabrafenib]	−1.0	−0.9	−1.1	−1.4	0.009 µM and 0.00858 µM	
C[C@@H](NC(=O)c1ncnc(N)c1Cl)c1ncc(C(=O)Nc2cc(C(F)(F)F)c(Cl)cn2)s1 [Tovorafenib]			−1.4		0.225 ± 0.0673 µM	
Cc1ccc(NC(=O)c2cccc(C(C)(C)C#N)c2)cc1Nc1ccc2ncn(C)c(=O)c2c1 [AZ628]	−2.6	−1.1	−1.8	−3.1	0.0441 ± 0.0212 µM	cooperativity of inhibition of ARAF^SSDD [4]: clear positive cooperativity
CCN(C)S(=O)(=O)Nc1ccc(F)c(C(=O)c2c[nH]c3ncc(-c4cnc(C5CC5)nc4)cc23)c1F [PLX7904]	−0.4	−0.4	−0.6	−0.6	0.899 ± 0.516 µM	IC50 [3, 9]: > 0.999 µM; IC50 ([3]; read-out: IC50 of BRAF^WT at 10 μM ATP, 10 μM ATP): 0.17 ± 0.121 µM; IC50 [3, 16]: > 1 µM; IC50 ([3]; read-out: IC50 of BRAF^WT at 1000 μM ATP, 1000 μM ATP): > 10 µM; IC50 [6, 13]: 0.32 ± 0.0824 µM
CCCS(=O)(=O)Nc1ccc(F)c(C(=O)c2c[nH]c3ncc(-c4ccc(Cl)cc4)cc23)c1F [Vemurafenib]	−0.8	−0.7	−0.9	−0.6	0.0476 ± 0.00912 µM	
CNC(=O)c1cc(Oc2ccc(NC(=O)Nc3ccc(Cl)c(C(F)(F)F)c3)cc2)ccn1 [Sorafenib]	−1.3	−1.2	−0.9			
Cc1ccc(NC(=O)c2ccnc(C(F)(F)F)c2)cc1-c1cc(OCCO)nc(N2CCOCC2)c1 [Naporafenib]	−2.6	−1.9	−3.2	−2.3	0.161 ± 0.0192 µM	CRAF^SSDD IC50 [1, 14]: single-digit nanomolar; IC50 ([1]; read-out: CRAF^SSDD IC50): 0.00605 ± 0.00241 µM; CRAF^WT IC50 [2, 15]: single-digit nanomolar; IC50 [2, 8]: 0.00546 ± 0.00267 µM; fold greater potency against CRAF dimers than ARAF dimers [7]: approximately 30 fold; IC50 [3, 9]: 0.0371 ± 0.023 µM; effect of increasing ATP concentration on IC50 for BRAF^WT dimers [3]: only modestly affected; IC50 [3, 10]: 0.0291 ± 0.00831 µM; IC50 [3, 12]: 0.0549 ± 0.0165 µM; IC50 [3, 16]: 0.0382 ± 0.0114 µM; cooperativity of inhibition of ARAF^SSDD [4]: clear positive cooperativity; IC50 [6]: 0.0513 ± 0.00116 µM
